Measurements published in the kinase profiling compilation of Christmann-Franck et al. (2016).

Tests used:
Assay in all cases: KINOMEscan competition binding
Settings in all cases: compound 10.0 µM
[1] = target: CAMKK2 (human) (UniProt Q96RR4)
[2] = target: STK33 (human) (UniProt Q9BYT3)
[3] = target: BTK (human) (UniProt Q06187)
[4] = target: PIP5K1A (human) (UniProt Q99755)
[5] = target: MAPK4 (human) (UniProt P31152)
[6] = target: STK4 (human) (UniProt Q13043)
[7] = target: KDR (human) (UniProt P35968)
[8] = target: EPHA2 (human) (UniProt P29317)
[9] = target: PKN2 (human) (UniProt Q16513)
[10] = target: PLK2 (human) (UniProt Q9NYY3)
[11] = target: HIPK3 (human) (UniProt Q9H422)
[12] = target: PIP4K2C (human) (UniProt Q8TBX8)
[13] = target: STK39 (human) (UniProt Q9UEW8)
[14] = target: CSNK1G3 (human) (UniProt Q9Y6M4)
CSNK1G3 (human), sequence (Q9Y6M4 whole entry, looked up): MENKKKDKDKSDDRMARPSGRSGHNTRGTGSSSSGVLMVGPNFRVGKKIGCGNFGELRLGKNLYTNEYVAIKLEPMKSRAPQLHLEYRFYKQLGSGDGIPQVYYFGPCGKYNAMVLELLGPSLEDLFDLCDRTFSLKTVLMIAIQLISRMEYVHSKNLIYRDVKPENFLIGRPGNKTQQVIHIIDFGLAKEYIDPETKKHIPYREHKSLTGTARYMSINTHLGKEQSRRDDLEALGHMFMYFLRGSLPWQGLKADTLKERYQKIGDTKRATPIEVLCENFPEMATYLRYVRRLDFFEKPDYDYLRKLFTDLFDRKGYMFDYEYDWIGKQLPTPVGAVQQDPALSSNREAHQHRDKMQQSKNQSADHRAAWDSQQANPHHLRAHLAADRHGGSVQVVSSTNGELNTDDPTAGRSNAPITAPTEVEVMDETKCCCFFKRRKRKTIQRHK

[15] = target: CaMK1 (human) (UniProt Q14012)
[16] = target: CDK8 (human) (UniProt P49336)
[17] = target: PRKCQ (human) (UniProt Q04759)
[18] = target: MAP3K5 (human) (UniProt Q99683)
MAP3K5 (human), sequence (Q99683 whole entry, looked up): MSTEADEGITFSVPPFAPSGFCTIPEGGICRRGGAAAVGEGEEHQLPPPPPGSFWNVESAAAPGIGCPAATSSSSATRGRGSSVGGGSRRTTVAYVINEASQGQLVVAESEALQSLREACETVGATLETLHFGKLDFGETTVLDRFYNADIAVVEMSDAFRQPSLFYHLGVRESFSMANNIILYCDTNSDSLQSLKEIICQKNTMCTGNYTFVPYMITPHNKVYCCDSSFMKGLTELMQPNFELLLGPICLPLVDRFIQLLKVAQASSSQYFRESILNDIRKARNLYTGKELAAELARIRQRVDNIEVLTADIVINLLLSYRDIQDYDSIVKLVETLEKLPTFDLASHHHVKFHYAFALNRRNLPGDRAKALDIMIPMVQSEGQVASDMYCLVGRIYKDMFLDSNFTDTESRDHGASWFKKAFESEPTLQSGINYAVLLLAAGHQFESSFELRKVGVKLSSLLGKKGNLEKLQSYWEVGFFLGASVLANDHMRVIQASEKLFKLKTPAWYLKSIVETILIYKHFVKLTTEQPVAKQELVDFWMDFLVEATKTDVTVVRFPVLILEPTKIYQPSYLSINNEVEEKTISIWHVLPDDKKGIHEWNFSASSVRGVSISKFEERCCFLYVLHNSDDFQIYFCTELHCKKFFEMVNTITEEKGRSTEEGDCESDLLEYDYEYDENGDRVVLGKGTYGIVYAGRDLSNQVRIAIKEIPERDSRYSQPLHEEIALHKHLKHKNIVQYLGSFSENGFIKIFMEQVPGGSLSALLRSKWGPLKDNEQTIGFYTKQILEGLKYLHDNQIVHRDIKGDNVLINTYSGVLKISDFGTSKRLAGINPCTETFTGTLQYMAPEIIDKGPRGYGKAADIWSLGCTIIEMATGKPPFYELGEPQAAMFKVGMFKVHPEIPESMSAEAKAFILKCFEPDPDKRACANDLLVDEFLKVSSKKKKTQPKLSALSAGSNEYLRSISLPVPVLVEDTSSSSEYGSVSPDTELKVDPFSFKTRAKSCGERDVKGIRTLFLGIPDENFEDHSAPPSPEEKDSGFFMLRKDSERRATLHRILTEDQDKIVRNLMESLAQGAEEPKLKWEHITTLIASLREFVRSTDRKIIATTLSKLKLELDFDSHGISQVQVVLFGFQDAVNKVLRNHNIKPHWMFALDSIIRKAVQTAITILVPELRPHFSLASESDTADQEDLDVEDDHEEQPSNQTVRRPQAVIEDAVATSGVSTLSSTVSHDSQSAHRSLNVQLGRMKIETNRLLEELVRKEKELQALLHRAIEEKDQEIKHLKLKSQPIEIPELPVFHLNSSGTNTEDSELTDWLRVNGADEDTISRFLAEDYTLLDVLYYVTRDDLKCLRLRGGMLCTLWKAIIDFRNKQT

[19] = target: NUAK1 (human) (UniProt O60285)
[20] = target: RIPK1 (human) (UniProt Q13546)
[21] = test system: KIT (human), P10721 [A829P]
KIT (human), P10721 [A829P], sequence (P10721 whole entry A829P, looked up): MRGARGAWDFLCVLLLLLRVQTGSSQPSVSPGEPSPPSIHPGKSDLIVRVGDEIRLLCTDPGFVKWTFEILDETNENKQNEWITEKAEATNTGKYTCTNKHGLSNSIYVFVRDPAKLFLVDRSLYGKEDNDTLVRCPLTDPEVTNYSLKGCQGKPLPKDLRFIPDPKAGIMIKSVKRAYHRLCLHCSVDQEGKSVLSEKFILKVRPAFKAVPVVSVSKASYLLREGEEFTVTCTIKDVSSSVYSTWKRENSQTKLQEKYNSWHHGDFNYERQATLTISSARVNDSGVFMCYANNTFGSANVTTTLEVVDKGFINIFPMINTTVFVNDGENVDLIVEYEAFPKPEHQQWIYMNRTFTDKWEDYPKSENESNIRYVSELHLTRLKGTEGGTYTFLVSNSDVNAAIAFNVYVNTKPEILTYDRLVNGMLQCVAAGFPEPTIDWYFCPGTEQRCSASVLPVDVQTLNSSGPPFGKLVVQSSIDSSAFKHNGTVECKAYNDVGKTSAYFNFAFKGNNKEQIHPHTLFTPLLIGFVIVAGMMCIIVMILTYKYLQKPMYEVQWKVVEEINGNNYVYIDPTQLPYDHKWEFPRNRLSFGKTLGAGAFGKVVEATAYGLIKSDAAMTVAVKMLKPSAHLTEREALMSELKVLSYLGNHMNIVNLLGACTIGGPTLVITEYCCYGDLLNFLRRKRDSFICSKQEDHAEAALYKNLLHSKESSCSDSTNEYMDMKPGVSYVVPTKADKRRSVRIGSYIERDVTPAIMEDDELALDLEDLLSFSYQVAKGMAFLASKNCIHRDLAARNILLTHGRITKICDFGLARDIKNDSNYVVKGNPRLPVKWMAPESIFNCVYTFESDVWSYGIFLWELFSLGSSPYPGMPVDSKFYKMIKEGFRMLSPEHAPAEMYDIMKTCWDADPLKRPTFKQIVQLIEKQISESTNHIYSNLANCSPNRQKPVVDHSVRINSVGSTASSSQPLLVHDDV

[22] = target: SRPK2 (human) (UniProt P78362)
SRPK2 (human), sequence (P78362 whole entry, looked up): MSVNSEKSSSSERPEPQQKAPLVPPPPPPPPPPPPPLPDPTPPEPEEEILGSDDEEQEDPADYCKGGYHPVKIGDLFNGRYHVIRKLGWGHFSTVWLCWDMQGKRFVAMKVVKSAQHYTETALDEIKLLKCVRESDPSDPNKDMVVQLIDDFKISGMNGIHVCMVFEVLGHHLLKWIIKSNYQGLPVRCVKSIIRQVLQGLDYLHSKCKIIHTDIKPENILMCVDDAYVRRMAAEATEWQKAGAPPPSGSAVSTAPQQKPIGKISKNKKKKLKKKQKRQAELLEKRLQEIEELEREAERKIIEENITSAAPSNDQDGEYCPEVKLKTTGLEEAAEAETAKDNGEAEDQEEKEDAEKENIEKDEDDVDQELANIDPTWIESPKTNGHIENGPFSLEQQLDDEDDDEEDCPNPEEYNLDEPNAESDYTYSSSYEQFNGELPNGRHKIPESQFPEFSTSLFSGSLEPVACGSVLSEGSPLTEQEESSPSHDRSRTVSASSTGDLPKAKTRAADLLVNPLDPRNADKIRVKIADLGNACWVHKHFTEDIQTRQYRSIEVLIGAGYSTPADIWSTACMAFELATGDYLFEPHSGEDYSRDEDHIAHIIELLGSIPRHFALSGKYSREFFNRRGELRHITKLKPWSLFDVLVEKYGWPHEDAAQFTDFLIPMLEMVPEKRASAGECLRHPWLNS

[23] = target: YES1 (human) (UniProt P07947)
[24] = target: ROCK1 (human) (UniProt Q13464)
[25] = target: CDK5 (human) (UniProt Q00535)
[26] = target: MINK1 (human) (UniProt Q8N4C8)
[27] = target: FYN (human) (UniProt P06241)
[28] = test system: CPK1 (P.falciparum)
[29] = target: GAK (human) (UniProt O14976)
[30] = target: RPS6KA5 KD2 (human) (UniProt O75582)
[31] = target: LYN (human) (UniProt P07948)
[32] = test system: PIK3CA (human), P42336 [Q546K]
[33] = test system: BRAF (human), P15056 [V600E]
BRAF (human), P15056 [V600E], sequence (P15056 whole entry V600E, looked up): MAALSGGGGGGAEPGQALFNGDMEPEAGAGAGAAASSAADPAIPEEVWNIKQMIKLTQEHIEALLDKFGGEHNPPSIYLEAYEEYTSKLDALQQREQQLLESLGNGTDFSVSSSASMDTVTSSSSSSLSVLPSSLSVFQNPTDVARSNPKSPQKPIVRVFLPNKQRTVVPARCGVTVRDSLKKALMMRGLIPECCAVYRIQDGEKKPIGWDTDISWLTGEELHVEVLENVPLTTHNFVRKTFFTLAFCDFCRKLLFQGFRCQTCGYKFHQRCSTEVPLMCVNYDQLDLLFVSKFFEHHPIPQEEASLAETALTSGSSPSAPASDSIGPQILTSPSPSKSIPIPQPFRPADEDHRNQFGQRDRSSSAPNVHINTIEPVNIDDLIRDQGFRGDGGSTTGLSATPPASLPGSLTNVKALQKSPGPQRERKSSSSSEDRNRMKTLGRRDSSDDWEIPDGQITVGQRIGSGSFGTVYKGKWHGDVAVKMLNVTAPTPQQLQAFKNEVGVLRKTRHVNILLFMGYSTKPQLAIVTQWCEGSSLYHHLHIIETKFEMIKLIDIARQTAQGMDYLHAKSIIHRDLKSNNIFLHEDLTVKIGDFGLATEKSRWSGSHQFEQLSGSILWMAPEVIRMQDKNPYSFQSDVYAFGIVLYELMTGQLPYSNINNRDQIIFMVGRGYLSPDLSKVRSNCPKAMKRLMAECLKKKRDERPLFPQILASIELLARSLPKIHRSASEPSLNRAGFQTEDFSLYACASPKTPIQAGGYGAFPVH

[34] = target: MAPK12 (human) (UniProt P53778)
[35] = target: MAPKAPK5 (human) (UniProt Q8IW41)
[36] = target: MTOR (human) (UniProt P42345)
[37] = target: CDC42BPB (human) (UniProt Q9Y5S2)
[38] = test system: EGFR (human), P00533 [T790M/L858R]
[39] = target: GRK1 (human) (UniProt Q15835)
[40] = test system: PIK3CA (human), P42336 [E545K]
[41] = target: ABL2 (human) (UniProt P42684)

BTK (human), sequence (Q06187 whole entry, looked up): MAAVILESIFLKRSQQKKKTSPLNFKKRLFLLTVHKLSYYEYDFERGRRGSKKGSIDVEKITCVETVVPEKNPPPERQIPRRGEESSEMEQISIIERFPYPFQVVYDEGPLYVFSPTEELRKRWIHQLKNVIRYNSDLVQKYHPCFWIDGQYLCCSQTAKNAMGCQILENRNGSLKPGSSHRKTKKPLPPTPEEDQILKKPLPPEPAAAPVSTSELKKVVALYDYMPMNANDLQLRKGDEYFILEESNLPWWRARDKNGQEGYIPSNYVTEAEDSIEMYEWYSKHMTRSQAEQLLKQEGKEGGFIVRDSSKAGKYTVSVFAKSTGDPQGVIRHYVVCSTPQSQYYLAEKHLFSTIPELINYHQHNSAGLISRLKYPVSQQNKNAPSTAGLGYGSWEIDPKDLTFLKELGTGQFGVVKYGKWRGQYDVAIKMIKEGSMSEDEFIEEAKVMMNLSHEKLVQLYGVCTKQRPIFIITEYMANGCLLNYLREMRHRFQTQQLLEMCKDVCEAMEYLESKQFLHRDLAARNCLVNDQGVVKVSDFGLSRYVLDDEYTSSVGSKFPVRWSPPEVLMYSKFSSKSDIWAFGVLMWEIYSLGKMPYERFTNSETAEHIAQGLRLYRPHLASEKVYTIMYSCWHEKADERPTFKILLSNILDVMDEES

COC(=O)Nc1ccc(-c2nc(N3CCOCC3)c3cnn(C4CCN(C(=O)OC)CC4)c3n2)cc1
kinase still bound, per cent of control [1]: 84% | kinase still bound, per cent of control [2]: 84% | kinase still bound, per cent of control [3]: 99% | kinase still bound, per cent of control [4]: 98% | kinase still bound, per cent of control [5]: 68% | kinase still bound, per cent of control [6]: 100% | kinase still bound, per cent of control [7]: 100% | kinase still bound, per cent of control [8]: 100% | kinase still bound, per cent of control [9]: 100% | kinase still bound, per cent of control [10]: 96% | kinase still bound, per cent of control [11]: 72% | kinase still bound, per cent of control [12]: 12% | per cent of control [13]: 67% | kinase still bound, per cent of control [14]: 100% | kinase still bound, per cent of control [15]: 96% | per cent of control [16]: 100% | kinase still bound, per cent of control [17]: 99% | kinase still bound, per cent of control [18]: 100% | kinase still bound, per cent of control [19]: 72% | kinase still bound, per cent of control [20]: 100% | kinase still bound, per cent of control [21]: 91% | kinase still bound, per cent of control [22]: 100% | kinase still bound, per cent of control [23]: 97% | kinase still bound, per cent of control [24]: 82% | per cent of control [25]: 100% | kinase still bound, per cent of control [26]: 100% | kinase still bound, per cent of control [27]: 99% | kinase still bound, per cent of control [28]: 100% | kinase still bound, per cent of control [29]: 94% | kinase still bound, per cent of control [30]: 88% | kinase still bound, per cent of control [31]: 92% | kinase still bound, per cent of control [32]: 6.8% | kinase still bound, per cent of control [33]: 81% | kinase still bound, per cent of control [34]: 0% | kinase still bound, per cent of control [35]: 100% | kinase still bound, per cent of control [36]: 0% | kinase still bound, per cent of control [37]: 96% | kinase still bound, per cent of control [38]: 100% | kinase still bound, per cent of control [39]: 100% | kinase still bound, per cent of control [40]: 4.9% | kinase still bound, per cent of control [41]: 100%

CC(C)n1nc(-c2cc3cc(O)ccc3[nH]2)c2c(N)ncnc21
kinase still bound, per cent of control [1]: 30% | kinase still bound, per cent of control [2]: 45% | kinase still bound, per cent of control [3]: 22% | kinase still bound, per cent of control [4]: 62% | kinase still bound, per cent of control [5]: 75% | kinase still bound, per cent of control [6]: 84% | kinase still bound, per cent of control [8]: 9.4% | kinase still bound, per cent of control [9]: 86% | kinase still bound, per cent of control [10]: 13% | kinase still bound, per cent of control [11]: 0.9% | kinase still bound, per cent of control [12]: 9.9% | per cent of control [13]: 97% | kinase still bound, per cent of control [15]: 45% | per cent of control [16]: 43% | kinase still bound, per cent of control [17]: 58% | kinase still bound, per cent of control [18]: 100% | kinase still bound, per cent of control [19]: 86% | kinase still bound, per cent of control [20]: 100% | kinase still bound, per cent of control [21]: 10% | kinase still bound, per cent of control [22]: 100% | kinase still bound, per cent of control [23]: 3.2% | kinase still bound, per cent of control [24]: 61% | per cent of control [25]: 100% | kinase still bound, per cent of control [26]: 7.7% | kinase still bound, per cent of control [27]: 4.6% | kinase still bound, per cent of control [29]: 6.2% | kinase still bound, per cent of control [30]: 22% | kinase still bound, per cent of control [31]: 12% | kinase still bound, per cent of control [33]: 4.4% | kinase still bound, per cent of control [34]: 59% | kinase still bound, per cent of control [35]: 86% | kinase still bound, per cent of control [36]: 0% | kinase still bound, per cent of control [37]: 71% | kinase still bound, per cent of control [39]: 16% | kinase still bound, per cent of control [41]: 28%

CCC(=O)N1CCN(c2ccc(-n3c(=O)ccc4cnc5ccc(-c6cnc7ccccc7c6)cc5c43)cc2C(F)(F)F)CC1
kinase still bound, per cent of control [1]: 85% | kinase still bound, per cent of control [2]: 90% | kinase still bound, per cent of control [4]: 89% | kinase still bound, per cent of control [5]: 80% | kinase still bound, per cent of control [6]: 7.6% | kinase still bound, per cent of control [7]: 65% | kinase still bound, per cent of control [8]: 59% | kinase still bound, per cent of control [9]: 65% | kinase still bound, per cent of control [10]: 85% | kinase still bound, per cent of control [11]: 86% | kinase still bound, per cent of control [12]: 58% | per cent of control [13]: 100% | kinase still bound, per cent of control [14]: 100% | kinase still bound, per cent of control [15]: 50% | per cent of control [16]: 4.6% | kinase still bound, per cent of control [17]: 91% | kinase still bound, per cent of control [18]: 100% | kinase still bound, per cent of control [19]: 100% | kinase still bound, per cent of control [20]: 1.9% | kinase still bound, per cent of control [22]: 100% | kinase still bound, per cent of control [23]: 74% | kinase still bound, per cent of control [24]: 53% | per cent of control [25]: 100% | kinase still bound, per cent of control [26]: 19% | kinase still bound, per cent of control [27]: 49% | kinase still bound, per cent of control [28]: 36% | kinase still bound, per cent of control [29]: 57% | kinase still bound, per cent of control [30]: 100% | kinase still bound, per cent of control [31]: 79% | kinase still bound, per cent of control [32]: 6.8% | kinase still bound, per cent of control [34]: 71% | kinase still bound, per cent of control [35]: 100% | kinase still bound, per cent of control [37]: 3.4% | kinase still bound, per cent of control [38]: 100% | kinase still bound, per cent of control [39]: 99% | kinase still bound, per cent of control [40]: 0.6% | kinase still bound, per cent of control [41]: 99%

COc1ccc(-c2ccc3c(N4CCOCC4)nc(N4C[C@@H](C)O[C@@H](C)C4)nc3n2)cc1CO
kinase still bound, per cent of control [1]: 64% | kinase still bound, per cent of control [2]: 95% | kinase still bound, per cent of control [3]: 100% | kinase still bound, per cent of control [4]: 97% | kinase still bound, per cent of control [5]: 100% | kinase still bound, per cent of control [6]: 100% | kinase still bound, per cent of control [7]: 98% | kinase still bound, per cent of control [8]: 100% | kinase still bound, per cent of control [9]: 100% | kinase still bound, per cent of control [10]: 100% | kinase still bound, per cent of control [11]: 76% | kinase still bound, per cent of control [12]: 87% | per cent of control [13]: 100% | kinase still bound, per cent of control [14]: 92% | kinase still bound, per cent of control [15]: 90% | per cent of control [16]: 100% | kinase still bound, per cent of control [17]: 100% | kinase still bound, per cent of control [18]: 97% | kinase still bound, per cent of control [19]: 76% | kinase still bound, per cent of control [20]: 100% | kinase still bound, per cent of control [21]: 100% | kinase still bound, per cent of control [22]: 100% | kinase still bound, per cent of control [23]: 100% | kinase still bound, per cent of control [24]: 89% | per cent of control [25]: 100% | kinase still bound, per cent of control [26]: 100% | kinase still bound, per cent of control [27]: 96% | kinase still bound, per cent of control [28]: 100% | kinase still bound, per cent of control [29]: 95% | kinase still bound, per cent of control [30]: 100% | kinase still bound, per cent of control [31]: 100% | kinase still bound, per cent of control [32]: 2.8% | kinase still bound, per cent of control [33]: 92% | kinase still bound, per cent of control [34]: 100% | kinase still bound, per cent of control [35]: 77% | kinase still bound, per cent of control [36]: 0% | kinase still bound, per cent of control [37]: 81% | kinase still bound, per cent of control [38]: 100% | kinase still bound, per cent of control [39]: 98% | kinase still bound, per cent of control [40]: 2% | kinase still bound, per cent of control [41]: 95%
